In patent publication US12285407B2, “Bis-indolylmethane derivatives and uses thereof” (The University of The West Indies, priority 2018, dated 2025):
Where two headings read alike, the source gives them in different places.

Experiments:
Escherichia coli [1] = experiment: microbe, parasite or virus in culture; type: cell-based; conditions: antibiotic alone, Table 6, read-out: MIC of antibiotic, No compound
Bacillus cereus [2] = experiment: Adjuvant broth microdilution (antibiotic MIC with SP-BIM at 50 μg/mL); type: cell-based; conditions: antibiotic alone, Table 9
[3] = tested on: clinical strains of Enterococcus faecium; experiment: Kirby Bauer disc diffusion susceptibility profile; type: cell-based; conditions: for Zone of clearance: 35° C., 24 hours, average n=3; for Interpretive standard (resistant/susceptible): zones vs EUCAST breakpoints (Table 31)
MRSA HS 10132 = experiment: Systemic lethal MRSA infection in mice (survival); type: in vivo; conditions: ampicillin only, 5 days
Streptococcus pneumoniae [4] = experiment: Checkerboard synergy (FICI) of antibiotics with SP-BIM; type: cell-based; conditions: for MIC: 24 h, antibiotic alone, read-out: MIC antibiotic only
Staphylococcus aureus = experiment: as above; type: cell-based; conditions: Staphylococcus aureus, Staphylococcus aureus; for MIC: 24 h, antibiotic alone, read-out: MIC antibiotic only
Streptococcus pneumoniae [5] = experiment: Adjuvant broth microdilution (antibiotic MIC with SP-BIM at 50 μg/mL); type: cell-based; conditions: Streptococcus pneumoniae; Streptococcus pneumonia; antibiotic alone; Table 5; read-out: MIC of antibiotic, No compound
Klebsiella pneumoniae [6] = experiment: Checkerboard synergy (FICI) of antibiotics with SP-BIM; type: cell-based; conditions: for MIC: 24 h, antibiotic alone, read-out: MIC antibiotic only
Candida albicans = experiment: as above; design: MIC SP-BIM 13 only / MIC in combination: Antibiotic / MIC antibiotic only: unit not given beside the values
Bacillus cereus [7] = experiment: as above; type: cell-based; conditions: for MIC: 24 h, antibiotic alone, read-out: MIC antibiotic only
Enterococcus faecium = experiment: as above; type: cell-based; conditions: Enterococcus faecium, Enterococcus faecium; for MIC: 24 h, antibiotic alone, read-out: MIC antibiotic only
Escherichia coli [8] = experiment: as above; design: MIC SP-BIM 13 only / MIC in combination: Antibiotic: unit not given beside the values; conditions: for MIC: 24 h
Klebsiella pneumoniae [9] = experiment: Adjuvant broth microdilution (antibiotic MIC with SP-BIM at 50 μg/mL); type: cell-based; conditions: antibiotic alone
clinical strains of MRSA = experiment: Kirby Bauer disc diffusion susceptibility profile; type: cell-based, Staphylococcus aureus; conditions: for Zone of clearance: 35° C., 24 hours, average n=3; for Interpretive standard (resistant/susceptible): zones vs EUCAST breakpoints (Table 30)
Escherichia coli O157:H7 = type: cell-based; conditions: antibiotic alone, no SP-BIM
[10] = Streptococcus pneumonia (title: Streptococcus pyogenes), antibiotic + SP-BIM 9
[11] = Streptococcus pneumoniae, antibiotic + SP-BIM 13
[12] = SP-BIM 9 in combination with the labelled antibiotic
[13] = SP-BIM 13 in combination with the labelled antibiotic
[14] = antibiotic in combination with SP-BIM 9
[15] = antibiotic in combination with SP-BIM 13
[16] = MIC of the antibiotic in combination with SP-BIM 13

SMILES: CC1(C)S[C@@H]2[C@H](NC(=O)[C@H](N)c3ccccc3)C(=O)N2[C@H]1C(=O)O [Ampicillin, ampicillin]
- MIC (Escherichia coli [1]): 63 µg/mL
- MIC of antibiotic, No Compound (Bacillus cereus [2]): >250 µg/mL
- Zone of clearance ([3]; E. faecium strain 15134): 37 mm
- Interpretive standard (resistant/susceptible) ([3]; E. faecium strain 15134): S
- Zone of clearance ([3]; E. faecium strain 21024): 32 mm
- Interpretive standard (resistant/susceptible) ([3]; E. faecium strain 21024): S
- Zone of clearance ([3]; E. faecium strain 21955): 32 mm
- Interpretive standard (resistant/susceptible) ([3]; E. faecium strain 21955): S
- Zone of clearance ([3]; E. faecium strain 22003): 37 mm
- Interpretive standard (resistant/susceptible) ([3]; E. faecium strain 22003): S
- Zone of clearance ([3]; E. faecium strain 22870): 10 mm
- Interpretive standard (resistant/susceptible) ([3]; E. faecium strain 22870): R
- Zone of clearance ([3]; E. faecium strain 23227): 26 mm
- Interpretive standard (resistant/susceptible) ([3]; E. faecium strain 23227): S
- Zone of clearance ([3]; E. faecium strain 23230): 36 mm
- Interpretive standard (resistant/susceptible) ([3]; E. faecium strain 23230): S
- Zone of clearance ([3]; E. faecium strain 23668): 39 mm
- Interpretive standard (resistant/susceptible) ([3]; E. faecium strain 23668): S
- Zone of clearance ([3]; E. faecium strain 24169): 33 mm
- Interpretive standard (resistant/susceptible) ([3]; E. faecium strain 24169): S
- Zone of clearance ([3]; E. faecium strain RC63): 12 mm
- Interpretive standard (resistant/susceptible) ([3]; E. faecium strain RC63): R
- mortality (MRSA HS 10132): 100%
- FIC of SP-BIM 9 (Streptococcus pneumoniae [4]; Streptococcus pneumonia (title: Streptococcus pyogenes), SP-BIM 9 in combination with the labelled antibiotic): 0.06
- Interpretation (Streptococcus pneumoniae [4]; [10]): Synergy (Synergy: FICI≤0.5)
- Σ FIC (Streptococcus pneumoniae [4]; [10]): <0.06
- MIC in combination, Antibiotic (Streptococcus pneumoniae [4]; Streptococcus pneumonia (title: Streptococcus pyogenes), antibiotic in combination with SP-BIM 9): 0.1 µg/mL
- FIC of antibiotic (Streptococcus pneumoniae [4]; Streptococcus pneumonia (title: Streptococcus pyogenes), in combination with SP-BIM 9): 0.00
- MIC (Streptococcus pneumoniae [4]; Streptococcus pneumoniae, Streptococcus pneumonia (title: Streptococcus pyogenes), SP-BIM 9 checkerboard): > 250 µg/mL
- MIC (Streptococcus pneumoniae [4]; Streptococcus pneumoniae, Streptococcus pneumoniae, SP-BIM 13 checkerboard): 250 µg/mL
- FIC of SP-BIM 13 (Streptococcus pneumoniae [4]; Streptococcus pneumoniae, SP-BIM 13 in combination with the labelled antibiotic): 0.3
- Interpretation (Streptococcus pneumoniae [4]; [11]): Synergy (Synergy: FICI≤0.5)
- Σ FIC (Streptococcus pneumoniae [4]; [11]): <0.3
- MIC in combination, Antibiotic (Streptococcus pneumoniae [4]; Streptococcus pneumoniae, antibiotic in combination with SP-BIM 13): 2 µg/mL
- FIC of antibiotic (Streptococcus pneumoniae [4]; Streptococcus pneumoniae, in combination with SP-BIM 13): 0.0
- MIC (Staphylococcus aureus; SP-BIM 9 checkerboard): 0.5 µg/mL
- MIC (Staphylococcus aureus; SP-BIM 13 checkerboard): 0.5 µg/mL
- FIC of SP-BIM 9 (Staphylococcus aureus; [12]): 0.50
- FIC of SP-BIM 13 (Staphylococcus aureus; [13]): 0.0
- Interpretation (Staphylococcus aureus; antibiotic + SP-BIM 9): Additive (Additive: FICI>0.5-1.0)
- Σ FIC (Staphylococcus aureus; antibiotic + SP-BIM 9): <0.90
- Interpretation (Staphylococcus aureus; antibiotic + SP-BIM 13): Additive (Additive: FICI>0.5-1.0)
- Σ FIC (Staphylococcus aureus; antibiotic + SP-BIM 13): 1.0
- MIC in combination, Antibiotic (Staphylococcus aureus; [14]): 0.2 µg/mL
- MIC in combination, Antibiotic (Staphylococcus aureus; [15]): 0.5 µg/mL
- FIC of antibiotic (Staphylococcus aureus; in combination with SP-BIM 9): 0.40
- FIC of antibiotic (Staphylococcus aureus; in combination with SP-BIM 13): 1.0
- MIC (Streptococcus pneumoniae [5]): 0.5 µg/mL
- MIC (Klebsiella pneumoniae [6]; SP-BIM 9 checkerboard): 250 µg/mL
- MIC (Klebsiella pneumoniae [6]; SP-BIM 13 checkerboard): 250 µg/mL
- FIC of SP-BIM 9 (Klebsiella pneumoniae [6]; [12]): 1
- FIC of SP-BIM 13 (Klebsiella pneumoniae [6]; [13]): 0.3
- Interpretation (Klebsiella pneumoniae [6]; antibiotic + SP-BIM 9): Synergy (Synergy: FICI≤0.5)
- Σ FIC (Klebsiella pneumoniae [6]; antibiotic + SP-BIM 9): <1.0
- Interpretation (Klebsiella pneumoniae [6]; antibiotic + SP-BIM 13): Indifferent (Indifferent: FICI>1.0-4.0)
- Σ FIC (Klebsiella pneumoniae [6]; antibiotic + SP-BIM 13): <1.3
- MIC in combination, Antibiotic (Klebsiella pneumoniae [6]; [14]): 2 µg/mL
- MIC in combination, Antibiotic (Klebsiella pneumoniae [6]; [15]): 250 µg/mL
- FIC of antibiotic (Klebsiella pneumoniae [6]; in combination with SP-BIM 9): 0.008
- FIC of antibiotic (Klebsiella pneumoniae [6]; in combination with SP-BIM 13): 1.0
- MIC (Candida albicans; 24 h, read-out: MIC antibiotic only): > 250 µg/mL
- MIC in combination: Antibiotic (Candida albicans; [16]): 0.5
- FIC of SP-BIM 13 (Candida albicans; [13]): 0.5
- Interpretation (Candida albicans; antibiotic + SP-BIM 13): Synergy (Synergy: FICI≤0.5)
- Σ FIC (Candida albicans; antibiotic + SP-BIM 13): <0.5
- FIC of antibiotic (Candida albicans; combination with SP-BIM 13): 0.0
- MIC (Bacillus cereus [7]; SP-BIM 9 checkerboard): 8 µg/mL
- MIC (Bacillus cereus [7]; SP-BIM 13 checkerboard): 8 µg/mL
- FIC of SP-BIM 13 (Bacillus cereus [7]; [13]): 0.3
- Interpretation (Bacillus cereus [7]; antibiotic + SP-BIM 13): Synergy (Synergy: FICI≤0.5)
- Σ FIC (Bacillus cereus [7]; antibiotic + SP-BIM 13): 0.3
- MIC in combination, Antibiotic (Bacillus cereus [7]; [15]): 0.5 µg/mL
- FIC of antibiotic (Bacillus cereus [7]; in combination with SP-BIM 13): 0.06
- MIC (Enterococcus faecium; SP-BIM 9 checkerboard): 250 µg/mL
- MIC (Enterococcus faecium; SP-BIM 13 checkerboard): 250 µg/mL
- MIC in combination, SP-BIM 9 (Enterococcus faecium; SP-BIM 9 concentration in combination with the labelled antibiotic): 64 µg/mL
- FIC of SP-BIM 9 (Enterococcus faecium; [12]): 0.3
- FIC of SP-BIM 13 (Enterococcus faecium; [13]): 0.5
- Interpretation (Enterococcus faecium; antibiotic + SP-BIM 9): Synergy (Synergy: FICI≤0.5)
- Σ FIC (Enterococcus faecium; antibiotic + SP-BIM 9): ≤0.3
- Interpretation (Enterococcus faecium; antibiotic + SP-BIM 13): Additive (Additive: FICI>0.5-1.0)
- Σ FIC (Enterococcus faecium; antibiotic + SP-BIM 13): <0.6
- MIC in combination, Antibiotic (Enterococcus faecium; [14]): 0.1 µg/mL
- MIC in combination, Antibiotic (Enterococcus faecium; [15]): 16 µg/mL
- FIC of antibiotic (Enterococcus faecium; in combination with SP-BIM 9): 0.0
- FIC of antibiotic (Enterococcus faecium; in combination with SP-BIM 13): 0.1
- MIC (Escherichia coli [8]; read-out: MIC antibiotic only, Escherichia coli, antibiotic alone): > 250 µg/mL
- MIC (Escherichia coli [8]; read-out: MIC antibiotic only, Escherichia coli, antibiotic alone, SP-BIM 9 checkerboard): 250 µg/mL
- MIC in combination: Antibiotic (Escherichia coli [8]; [16]): 4
- FIC of SP-BIM 9 (Escherichia coli [8]; [12]): 0.064
- FIC of SP-BIM 13 (Escherichia coli [8]; [13]): 0.5
- Interpretation (Escherichia coli [8]; antibiotic + SP-BIM 9): Synergy (Synergy: FICI≤0.5)
- Σ FIC (Escherichia coli [8]; antibiotic + SP-BIM 9): <0.1
- Interpretation (Escherichia coli [8]; antibiotic + SP-BIM 13): Synergy (Synergy: FICI≤0.5)
- Σ FIC (Escherichia coli [8]; antibiotic + SP-BIM 13): <0.5
- MIC in combination, Antibiotic (Escherichia coli [8]; [14]): 4 µg/mL
- FIC of antibiotic (Escherichia coli [8]; combination with SP-BIM 13): 0.0
- FIC of antibiotic (Escherichia coli [8]; in combination with SP-BIM 9): 0.016
- MIC of antibiotic, No Compound (Klebsiella pneumoniae [9]; Klebsiella pneumonia, no SP-BIM): >250 µg/mL
- MIC (Klebsiella pneumoniae [9]; Klebsiella pneumoniae, Table 7, read-out: MIC of antibiotic, No compound): > 250 µg/mL
- Zone of clearance (clinical strains of MRSA; MRSA strain 1594): 13.0 mm
- Interpretive standard (resistant/susceptible) (clinical strains of MRSA; MRSA strain 1594): R
- Interpretive standard (resistant/susceptible) (clinical strains of MRSA; MRSA strain 1621): R
- Zone of clearance (clinical strains of MRSA; MRSA strain 5455): 14.5 mm
- Interpretive standard (resistant/susceptible) (clinical strains of MRSA; MRSA strain 5455): R
- Zone of clearance (clinical strains of MRSA; MRSA strain 5872): 9.0 mm
- Interpretive standard (resistant/susceptible) (clinical strains of MRSA; MRSA strain 5872): R
- Zone of clearance (clinical strains of MRSA; MRSA strain 7153): 13.5 mm
- Interpretive standard (resistant/susceptible) (clinical strains of MRSA; MRSA strain 7153): R
- Zone of clearance (clinical strains of MRSA; MRSA strain 7172): 14.5 mm
- Interpretive standard (resistant/susceptible) (clinical strains of MRSA; MRSA strain 7172): R
- Zone of clearance (clinical strains of MRSA; MRSA strain 7698): 10.5 mm
- Interpretive standard (resistant/susceptible) (clinical strains of MRSA; MRSA strain 7698): R
- Zone of clearance (clinical strains of MRSA; MRSA strain 10132): 14.0 mm
- Interpretive standard (resistant/susceptible) (clinical strains of MRSA; MRSA strain 10132): R
- MIC of antibiotic, No Compound (Escherichia coli O157:H7): 8 µg/mL
